The text below walks through data of US20120230951A1 (priority 2011, published 2012).

Molecules are shown by their SMILES. Counter-ions that a name gives are not always drawn.

The assay concerns GT-1a pRLuc H771b 75 S/I subgenomic replicon cell line. As to the kind of experiment: HCV GT-1a replicon luciferase reporter assay. It counts as cell-based. As to conditions: Hepatitis C virus, GT1A, 72 h, read-out: GT-1a (IC50) (nM). From the text:
Determination of compounds HCV GT1b inhibitory replicon activity using the replicon luciferase reporter assay
The 2209-23 cell line was developed at Roche by stable transfection of the hepatoma cell line Huh-7 with a GT-1b Con1 subgenomic bicistronic replicon as previously described. Subgenomic replicon cell line was established in cured Huh7 cells, obtained from R. Bartenschlager (J. Virol. 2003 March; 77 (5):3007-19) The GT-1a H77 subgenomic replicon vector pRLuc H771b 75 S/I, was created by replacing the non structural region of the GT-1b Con1 subgenomic replicon by the one of the H77 strain, except for the first 75 amino acids of the NS3 protein that are from GT-1b Con1 strain. (J. Virol. 2001 77:5352-59) The GT-1a pRLuc H771b 75 S/I subgenomic replicon cell line was established in cured Huh7 cells, obtained from R. Bartenschlager. (J. Virol. 2003 March; 77 (5):3007-19)
All the subgenomic replicon cell lines were cultured in Dulbecco's Modified Eagle Medium (DMEM-Glutamax™-I; Invitrogen Cat #10569-010). The medium was supplemented with 10% Fetal Bovine Serum (Invitrogen Cat #10082-147), 1% penicillin/streptomycin (Mediatech Cat #30-002-CI) and 500 μg/ml of G418 (Mediatech Cat #30-234-CI). Cells were maintained at 37° C. in a humidified 5% CO2 atmosphere.
2209-23 cells were plated at a cell density of 5000 cells per well in 96 well plates (Becton Dickinson, Cat #35 3296). Cells were plated in 90 μl of Dulbecco's Modified Eagle Medium (DMEM-Glutamax™-I), (Invitrogen Cat #10569-010) medium was supplemented with 5% Fetal Bovine Serum (Invitrogen Cat #10082-147), 1% penicillin/streptomycin (Mediatech Cat #30-002-CI). The pRluc H771b 75 S/I cells were plated in 96-well plate at 3000 cells/well in DMEM-Glutamax™-I containing 5% FBS and 1% penicillin/streptomycin in 90 μl final volume. Cells were allowed to equilibrate for 24 hours at 37° C. and 5% CO2 at which time compounds were added. Compounds (or medium as a control) were added 24 hours post-plating in 3 fold dilutions at a final DMSO concentration of 1% in 10 ul volume. Renilla luciferase reporter signal was read 72 hours after addition of compounds using the Renilla Luciferase Assay System (Promega, cat #E2820). EC50 values were defined as the compound concentration at which a 50% reduction in the levels of renilla luciferase reporter was observed as compared to control samples in the absence of compound and was determined by non-linear fitting of compound dose-response data. The EC50 was approximated if maximum percentage inhibition was less than 90% and more than 70%.
For the compound `COC(=O)N[C@H]1CCc2cccc3c2N(C1=O)[C@H](c1ncc(-c2ccc(-c4ccc5cc(-c6cnc([C@@H]7CCCN7C(=O)[C@@H](NC(=O)OC)C(C)C)[nH]6)ccc5c4)nc2)[nH]1)C3` [Compound I-23, ((2S,5S)-2-{4-[6-(6-{2-[(S)-1-((S)-2-Methoxycarbonylamino-3-methyl-butyryl)pyrrolidin-2-yl]-3H-imidazol-4-yl}-naphthalen-2-yl)-pyridin-3-yl]-1Himidazol-2-yl}-4-oxo-1,2,4,5,6,7-hexahydro-azepino[3,2,1-hi]indol-5-yl)-carbamic acid methyl ester di-trifluoroacetic acid salt], the IC50 was determined as 0.767 nM. With `COC(=O)N[C@H]1CCc2cccc3c2N(C1=O)[C@H](c1ncc(-c2ccc(-c4ccc(-c5cnc([C@@H]6CCCN6C(=O)[C@@H](NC(=O)OC)C(C)C)[nH]5)cn4)cc2)[nH]1)C3` [Compound I-34, ((2S,5S)-2-{5-[4-(5-{2-[(S)-1-((S)-2-Methoxycarbonylamino-3-methyl-butyryl)-pyrrolidin-2-yl]-3H-imidazol-4-yl}-pyridin-2-yl)-phenyl]-1H-imidazol-2-yl}-4-oxo-1,2,4,5,6,7-hexahydro-azepino[3,2,1-hi]indol-5-yl)-carbamic acid methyl ester], the IC50 turned out to be 86.7 nM.

For `COC(=O)N[C@H]1CCc2cccc3c2N(C1=O)[C@H](c1ncc(-c2ccc(-c4ccc(-c5cnc([C@@H]6CCCN6C(=O)[C@@H](NC(=O)OC)C(C)C)[nH]5)cc4)cc2F)[nH]1)C3` [Compound I-36, {(2S,5S)-2-[5-(3-Fluoro-4′-{2-[(S)-1-((S)-2-methoxycarbonylamino-3-methyl-butyryl)-pyrrolidin-2-yl]-1H-imidazol-4-yl}-biphenyl-4-yl)-1H-imidazol-2-yl]-4-oxo-1,2,4,5,6,7-hexahydro-azepino[3,2,1-hi]indol-5-yl}-carbamic acid methyl ester], the concentration for half-maximal inhibition (IC50) was found to be 13.8 nM. As for `COC(=O)N[C@H]1CCc2cccc3c2N(C1=O)[C@H](c1ncc(-c2ccc(-c4ccc(-c5cnc([C@@H]6CC7(CN6C(=O)[C@@H](NC(=O)OC)C(C)C)OCCO7)[nH]5)cc4)cc2)[nH]1)C3` [Compound I-8, {(2S,5S)-2-[5-(4′-{2-[(S)-7-((S)-2-Methoxycarbonylamino-3-methyl-butyryl)-1,4-dioxa-7-aza-spiro[4.4]non-8-yl]-3H-imidazol-4-yl}-biphenyl-4-yl)-1H-imidazol-2-yl]-4-oxo-1,2,4,5,6,7-hexahydro-azepino[3,2,1-hi]indol-5-yl}-carbamic acid methyl Ester], the figure is 2.54 nM; as for `COC(=O)N[C@H]1CCc2cccc3c2N(C1=O)[C@H](c1ncc(-c2ccc(-c4ccc(-c5cnc([C@@H]6COCCN6C(=O)[C@@H](NC(=O)OC)C(C)C)[nH]5)cc4)cc2)[nH]1)C3` [Compound I-64, {(2S,5S)-2-[5-(4′-{2-[(R)-4-((S)-2-Methoxycarbonylamino-3-methyl-butyryl)-morpholin-3-yl]-3H-imidazol-4-yl}-biphenyl-4-yl)-1H-imidazol-2-yl]-4-oxo-1,2,4,5,6,7-hexahydro-azepino[3,2,1-hi]indol-5-yl}-carbamic acid methyl ester], 9.87 nM. As for `COC(=O)N[C@H]1CCc2cccc3c2N(C1=O)[C@H](c1ncc(-c2ccc(-c4ccc(-c5cnc([C@@H]6C[C@@H](F)CN6C(=O)[C@@H](NC(=O)OC)C(C)C)[nH]5)cc4)cc2)[nH]1)C3` [Compound I-2, {(2S,5S)-2-[5-(4′-{2-[(2S,4R)-4-Fluoro-1-((S)-2-methoxycarbonylamino-3-methyl-butyryl)-pyrrolidin-2-yl]-3H-imidazol-4-yl}-biphenyl-4-yl)-1H-imidazol-2-yl]-4-oxo-1,2,4,5,6,7-hexahydro-azepino[3,2,1-hi]indol-5-yl}-carbamic acid methyl ester], the figure is 18.5 nM; as for `COC(=O)N[C@H]1CCc2cccc3c2N(C1=O)[C@H](c1ncc(-c2ccc(-c4ccc(-c5nnc([C@@H]6CCCN6C(=O)[C@@H](NC(=O)OC)C(C)C)[nH]5)cc4)cc2)[nH]1)C3` [Compound I-61, {(2S,5S)-2-[5-(4′-{5-[(S)-1-((S)-2-Methoxycarbonylamino-3-methyl-butyryl)-pyrrolidin-2-yl]-4H-[1,2,4]triazol-3-yl}-biphenyl-4-yl)-1H-imidazol-2-yl]-4-oxo-1,2,4,5,6,7-hexahydro-azepino[3,2,1-hi]indol-5-yl}-carbamic acid methyl ester], 67.2 nM; as for `COC(=O)N[C@H]1CCc2cccc3c2N(C1=O)[C@H](c1ncc(-c2ccc(-c4ccc(-c5nnc([C@@H]6CCCN6C(=O)[C@H](NC(=O)OC)c6ccccc6)[nH]5)cc4)cc2)[nH]1)C3` [Compound I-60, {(2S,5S)-2-[5-(4′-{5-[(S)-1-((R)-2-Methoxycarbonylamino-2-phenyl-acetyl)-pyrrolidin-2-yl]-4H-[1,2,4]triazol-3-yl}-biphenyl-4-yl)-1H-imidazol-2-yl]-4-oxo-1,2,4,5,6,7-hexahydro-azepino[3,2,1-hi]indol-5-yl}-carbamic acid methyl ester], 51.4 nM. As for `COC(=O)N[C@H]1CCc2cccc3c2N(C1=O)[C@H](c1ncc(-c2ccc(-c4ccc5cc(-c6cnc([C@@H]7CCCN7C(=O)[C@@H](NC(=O)OC)C(C)C)[nH]6)ccc5n4)cc2)[nH]1)C3` [Compound I-21, ((2S,5S)-2-{4-[4-(6-{2-[(S)-1-((S)-2-Methoxycarbonylamino-3-methyl-butyryl)-pyrrolidin-2-yl]-1H-imidazol-4-yl}-quinolin-2-yl)-phenyl]-1H-imidazol-2-yl}-4-oxo-1,2,4,5,6,7-hexahydro-azepino[3,2,1-hi]indol-5-yl)-carbamic acid methyl ester trifluroacetic acid, trifluoroacetic acid salt], the figure is 0.395 nM; as for `COC(=O)N[C@H]1CCc2cccc3c2N(C1=O)[C@H](c1ncc(-c2cnc4cc(-c5ccc(-c6[nH]c([C@@H]7CCCN7C(=O)[C@@H](NC(=O)OC)C(C)C)nc6Cl)cc5)ccc4c2)[nH]1)C3` [Compound I-20, ((2S,5S)-2-{5-[7-(4-{5-Chloro-2-[(S)-1-((S)-2-methoxycarbonylamino-3-methyl-butyryl)-pyrrolidin-2-yl]-3H-imidazol-4-yl}-phenyl)-quinolin-3-yl]-1H-imidazol-2-yl}-4-oxo-1,2,4,5,6,7-hexahydro-azepino[3,2,1-hi]indol-5-yl)-carbamic acid methyl ester trifluroacetic acid, trifluoroacetic acid salt], 12 nM.

For `COC(=O)N[C@H]1CCc2cccc3c2N(C1=O)[C@H](c1ncc(-c2ccc(-c4ccc(-c5cnc([C@@H]6C[C@H](O)CN6C(=O)[C@@H](NC(=O)OC)C(C)C)[nH]5)cc4)cc2)[nH]1)C3` [Compound I-33, {(2S,5S)-2-[5-(4′-{2-[(2S,4S)-4-Hydroxy-1-((S)-2-methoxycarbonylamino-3-methyl-butyryl)-pyrrolidin-2-yl]-3H-imidazol-4-yl}-biphenyl-4-yl)-1H-imidazol-2-yl]-4-oxo-1,2,4,5,6,7-hexahydro-azepino[3,2,1-hi]indol-5-yl}-carbamic acid methyl ester], the IC50 came to 46.1 nM. As for `COC(=O)N[C@H]1CCc2cccc3c2N(C1=O)[C@H](c1ncc(-c2ccc(-c4ccc(-c5[nH]c([C@@H]6CCCN6C(=O)[C@@H](NC(=O)OC)C(C)C)nc5Cl)cc4)cc2)[nH]1)C3` [Compound I-30, {(2S,5S)-2-[5-(4′-{5-Chloro-2-[(S)-1-((S)-2-methoxycarbonylamino-3-methyl-butyryl)-pyrrolidin-2-yl]-3H-imidazol-4yl}-biphenyl-4-yl)-1H-imidazol-2-yl]-4-oxo-1,2,4,5,6,7-hexahydro-azepino[3,2,1-hi]indol-5-yl}-carbamic acid methyl ester], the figure is 1 nM. As for `COC(=O)N[C@H]1CCc2cc(C(N)=O)cc3c2N(C1=O)[C@H](c1ncc(-c2ccc(-c4ccc(-c5cnc([C@H]6CCCN6C(=O)[C@H](NC(=O)OC)C(C)C)[nH]5)cc4)cc2)[nH]1)C3` [Compound I-27, {(2S,5S)-9-Carbamoyl-2-[5-(4′-{2-[(R)-1-((R)-2-methoxycarbonylamino-3-methyl-butyryl)-pyrrolidin-2-yl]-3H-imidazol-4-yl}-biphenyl-4-yl)-1H-imidazol-2-yl]-4-oxo-1,2,4,5,6,7-hexahydro-azepino[3,2,1-hi]indol-5-yl}-carbamic acid methyl ester], the figure is 5.08 nM.
